Article PMC9139002, “Naphthoquinone as a New Chemical Scaffold for Leishmanicidal Inhibitors of Leishmania GSK-3” (Biomedicines, 2022)
Like-named read-outs stand apart in the source and are kept apart here.

Tests used:
LdGSK-3s [1] = target: T1, LdGSK-3s (Leishmania donovani, UniProt A6N857); experiment: Inhibition of recombinant LdGSK-3s with Kinase Glo; assay type: biochemical; details: for IC50: recombinant LdGSK-3s, Kinase Glo
Description: (§1) Extraction, purification, and evaluation of compounds against recombinant LdGSK-3s was carried out as described. For that, a recombinant LdGSK-3s with a His-tag was obtained as inclusion bodies, that were further solubilized, and purified by chromatography first on a Ni^2+ column an in a second step on a DEAE (diethylaminoethyl) ionic exchange column. Samples were made in duplicate, and assays were repeated at least three times. IC50 (inhibitory concentration that decreases enzymatic activity by 50%) was calculated using the statistical module of SigmaPlot v11.0 software. Evaluation of compounds against hGSK-3β was performed using human recombinant GSK-3β purchased from Millipore as described previously. Compounds were prepared as a 10 mM stock solution in DMSO.

[2] = tested on: L. infantum promastigotes; experiment: Leishmanicidal activity on promastigotes (MTT reduction), Table 2 and Table S1; assay type: cell-based, Leishmania infantum
Description: (§2) Both activities were assessed by inhibition of MTT (3-(4,5-dimethylthiazol-2-yl)-2,5-diphenyltetrazolium bromide) reduction, as described in [34]. Samples were made in triplicate and assays were repeated at least twice. DMSO content in the medium was adjusted to 0.25% v/v (final concentration), regardless of the final concentration of the drug, and for the control, the untreated parasites. ICx (inhibitory concentration that inhibits parasite growth or enzymatic activity by x%) was calculated using the statistical module of SigmaPlot v11.0 software.
In a step ahead, the leishmanicidal activity of the compounds on L. pifanoi axenic amastigotes and L. infantum promastigotes was evaluated. Axenic Leishmania amastigotes afford the appraisal of the leishmanicidal activity without the constrains imposed on the access of the compounds to intracellular amastigotes within the parasitophorous vacuole, as well as to preclude the interference of the compounds via host–parasite interface in the final activity. For that, the axenic line of L. pifanoi amastigotes belonging to the mexicana complex was chosen, as in this species the infectivity, antigenicity, and metabolic identity between axenic and intracellular amastigotes have been consistently validated.

[3] = tested on: L. pifanoi axenic amastigotes; experiment: Leishmanicidal activity on axenic amastigotes (MTT reduction); assay type: cell-based, Leishmania pifanoi
[4] = tested on: L. donovani promastigotes; experiment: Mitochondrial membrane depolarization (Rhodamine 123 accumulation); assay type: cell-based, Leishmania donovani; details: 4 h; for decrease of Rh123 fluorescence: 2 μM (IC80)
hGSK-3β = target: T2, hGSK-3β (Homo sapiens, UniProt P49841); experiment: Inhibition of human recombinant GSK-3β; assay type: biochemical; details: read-out: percentage of inhibition of hGSK-3β
T2 construct: purchased Millipore
T2 sequence (P49841 whole entry): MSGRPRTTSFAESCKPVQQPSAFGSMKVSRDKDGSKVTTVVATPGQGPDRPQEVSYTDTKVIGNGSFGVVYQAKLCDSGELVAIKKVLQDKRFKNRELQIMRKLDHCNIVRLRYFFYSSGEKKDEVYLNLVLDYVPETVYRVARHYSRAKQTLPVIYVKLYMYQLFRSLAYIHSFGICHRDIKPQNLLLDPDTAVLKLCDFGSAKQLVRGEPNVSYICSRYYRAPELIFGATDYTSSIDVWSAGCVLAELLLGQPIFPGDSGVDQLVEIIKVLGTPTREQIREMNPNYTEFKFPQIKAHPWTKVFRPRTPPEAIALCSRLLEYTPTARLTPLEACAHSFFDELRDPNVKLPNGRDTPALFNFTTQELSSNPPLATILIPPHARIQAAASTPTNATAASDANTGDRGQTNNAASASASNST
Description: as §1

[5] = tested on: L. donovani promastigotes; experiment: Sub G0/G1 population (propidium iodide flow cytometry); assay type: cell-based, Leishmania donovani; details: 72 h
Description: L. donovani promastigotes (2 × 10^6 cells/mL) in RPMI-HIFCS were incubated with each compound in 24-well plates for 72 h at 26 °C by duplicate. Next, compounds were removed by washing with HBSS-Glc (15,700× g, 4 min, 4 °C) and cells were resuspended in […] of HBSS-Glc, fixed and permeabilized by addition of 200 μL 70% cold EtOH and incubated overnight at 4 °C. Ethanol was removed by centrifugation and cellular pellets washed with HBSS-Glc. Finally, cells were resuspended in 500 μL HBSS-Glc with 20 μg/mL propidium iodide (PI) and 3 mg/mL Ribonuclease A, and incubated in darkness at r. t. for 30 min. PI fluorescence was measured in a Coulter XL EPICS flow cytometer (Beckman Coulter, Nyon, Switzerland) (λEXC = 488 nm, λEM = 620 nm).
Each assay was repeated at least twice. Untreated cells were used as control for a standard cell cycle histogram, and Miltefosine (hexadecylphosphocholine) (15 μM) was used as control for an apoptosis-inducing respiratory inhibitor [51].
Parasites were incubated with the corresponding drug for 72 h, followed by EtOH permeabilization, incubated with 3 mg/mL Ribonuclease A and stained with 20 μg/mL of propidium iodide (PI) before cytofluorometric analysis. (λEXC = 488 nm, λEM = 620 nm). The percentage of subG0/G1 population (enclosed within green bars) stands for degraded chromatin, associated with the apoptotic-like process. Miltefosine (hexadecylphosphocholine, HePc) at 15 μM was added as a control for induction of apoptosis.

[6] = tested on: mouse peritoneal macrophages (MPM); experiment: Cytotoxicity on mouse peritoneal macrophages (MTT reduction); assay type: cell-based; details: for Selectivity Index (SI): IC50 MPM/IC50 axenic amastigotes; for IC50: mouse peritoneal macrophages, MTT reduction
Description: Leishmania parasites were collected at late exponential growth phase by centrifugation at 1610× g at 4 °C. Elicited mouse peritoneal macrophages (MPM) were obtained from 8-week-old Balb/c mice through i.p. injection with 1 mL of 10% thioglycolate medium 72 h before extraction. Macrophages were obtained by peritoneal washing (10 mL PBS, 4 °C).
as §2

LdGSK-3s [7] = target: T1, LdGSK-3s; experiment: Mechanism of inhibition of LdGSK-3s (kinetics versus ATP, Eadie–Scatchard plot); assay type: biochemical; details: ATP 1 to 10 μM, inhibitor 2.5 and 5 μM, GS2 25 μM
Description: Briefly, kinetic experiments were carried out at four different concentrations of ATP (10, 5, 2.5, and 1 µM), in the absence or presence of the inhibitors, at either 2.5 or 5 µM, while the phospho-glycogen synthase peptide-2 (GS2) substrate was kept constant at 25 µM. The data were processed using Microsoft Excel software and results presented as Eadie–Scatchard plots (v vs. v/[ATP]).

[8] = tested on: intracellular L. pifanoi amastigotes; experiment: Parasite load of macrophages infected with mCherry-L. pifanoi amastigotes; assay type: cell-based, Leishmania pifanoi
[9] = tested on: L. donovani promastigotes; experiment: Leishmanicidal activity on promastigotes (MTT reduction), Table 1; assay type: cell-based; details: Leishmania donovani

T1 sequence (A6N857 entry or part of it): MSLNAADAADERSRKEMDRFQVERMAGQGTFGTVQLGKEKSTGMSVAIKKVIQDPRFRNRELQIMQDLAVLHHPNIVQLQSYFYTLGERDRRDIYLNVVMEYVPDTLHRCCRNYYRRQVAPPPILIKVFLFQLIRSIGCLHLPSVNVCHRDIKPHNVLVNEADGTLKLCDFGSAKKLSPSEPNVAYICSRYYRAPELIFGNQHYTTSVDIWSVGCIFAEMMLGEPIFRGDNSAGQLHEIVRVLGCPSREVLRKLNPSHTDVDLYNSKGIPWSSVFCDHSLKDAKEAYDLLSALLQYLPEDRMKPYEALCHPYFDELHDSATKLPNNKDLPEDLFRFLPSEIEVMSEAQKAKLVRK

Row | Compound | IC50 (LdGSK-3s [1]) | IC50 ([2]; Leishmania infantum) | IC50 ([3]; Leishmania pifanoi) | melting point | Selectivity Index (SI) [6] | IC50 ([6]; Peritoneal macrophage) | also measured
1 | O=C1C(Cl)=C(NCc2ccccc2)C(=O)c2ccccc21 | > 10 µM | > 25 µM | > 25 µM | – | – | – | –
2 | CCOC(=O)NC1=C(Cl)C(=O)c2ccccc2C1=O [Compound 1, Ethyl-(3-chloro-1,4-naphthoquinone-2-yl)carbamate] | 3.7 ± 0.3 µM | 1.54 ± 0.01 µM | 0.15 ± 0.4 µM | 147 to 149 °C | 20.6 | 3.1 ± 0.1 µM | decrease of Rh123 fluorescence [4]: 33.0%; inhibition at 10 µM (hGSK-3β): 30%; percentage of subG0/G1 population ([5]; 2 μM (IC80)): 54.0 ± 4.2%; mechanism of inhibition of LdGSK-3s (LdGSK-3s [7]): ATP competitive inhibitors
3 | CC(C)OC(=O)NC1=C(Cl)C(=O)c2ccccc2C1=O [Compound 2, Isopropyl-(3-chloro-1,4-naphthoquinone-2-yl)carbamate] | 2.5 ± 0.2 µM | 1.47 ± 0.02 µM | 0.4 ± 0.2 µM | – | – | 4.51 ± 0.3 µM | decrease of Rh123 fluorescence [4]: 26.4%; inhibition at 10 µM (hGSK-3β): 25%; percentage of subG0/G1 population ([5]; 2 μM (IC80)): 59.6 ± 1.1%; decrease in parasite load ([8]; 2 μM): 76.3%; mechanism of inhibition of LdGSK-3s (LdGSK-3s [7]): ATP competitive inhibitors
4 | O=C(NC1=C(Cl)C(=O)c2ccccc2C1=O)OCc1ccccc1 [Compound 3, Benzyl-(3-chloro-1,4-naphthoquinone-2-yl)carbamate] | 2.8 ± 0.1 µM | 4.9 ± 0.2 µM | 4.7 ± 0.8 µM | – | – | 9.8 ± 0.2 µM | inhibition at 10 µM (hGSK-3β): 19%
5 | COc1ccc(COC(=O)NC2=C(Cl)C(=O)c3ccccc3C2=O)cc1 [Compound 4, 4-Methoxybenzyl-(3-chloro-1,4-naphthoquinone-2-yl)carbamate] | 4.1 ± 0.1 µM | 2.9 ± 0.2 µM | 3.7 ± 1.1 µM | 137 to 147 °C | 2.0 | 7.4 ± 0.8 µM | –
6 | COc1cc(COC(=O)NC2=C(Cl)C(=O)c3ccccc3C2=O)cc(OC)c1OC [Compound 5, 3,4,5-Trimethoxybenzyl-(3-chloro-1,4-naphthoquinone-2-yl)carbamate] | 4.5 ± 0.6 µM | 3.8 ± 1.9 µM | 3.6 ± 0.6 µM | – | – | 8.1 ± 1 µM | –
7 | CCCNC1=C(Cl)C(=O)c2ccccc2C1=O [Compound 6, 2-Chloro-3-(propylamino)-1,4-naphthoquinone] | > 10 µM | 19.1 ± 1.2 µM | > 25 µM | – | – | – | –
8 | CCCCCNC1=C(Cl)C(=O)c2ccccc2C1=O [Compound 7, 2-Chloro-3-(pentylamino)-1,4-naphthoquinone] | > 10 µM | 16.9 ± 0.4 µM | > 25 µM | – | – | – | –
9 | CC(C)(C)NC1=C(Cl)C(=O)c2ccccc2C1=O [Compound 8, 2-(tert-Butylamino)-3-chloro-1,4-naphthoquinone] | > 10 µM | 19.8 ± 3.6 µM | 17.8 ± 1.1 µM | – | 1.0 | 17 ± 0.3 µM | –
10 | O=C1C(Cl)=C(NC2CCCCC2)C(=O)c2ccccc21 [Compound 9, 2-Chloro-3-(cyclohexylamino)-1,4-naphthoquinone] | > 10 µM | > 25 µM | > 25 µM | 122 to 123 °C | – | – | –
11 | COc1cc(CNC2=C(Cl)C(=O)c3ccccc3C2=O)cc(OC)c1OC [Compound 10, 2-Chloro-3-((3,4,5-trimethoxybenzyl)amino)-1,4-naphthoquinone] | > 10 µM | > 50 µM | > 50 µM | 161 to 163 °C | – | – | –
12 | O=C1C(Cl)=C(NCc2ccc(Cl)cc2)C(=O)c2ccccc21 [Compound 11, 2-Chloro-3-((4-chlorobenzyl)amino)-1,4-naphthoquinone] | > 10 µM | > 25 µM | > 25 µM | – | – | – | –
13 | O=C1C(Cl)=C(Nc2ccc(Cl)cc2)C(=O)c2ccccc21 [Compound 12, 2-Chloro-3-((4-chlorophenyl)amino)-1,4-naphthoquinone] | > 10 µM | > 50 µM | > 50 µM | – | – | – | –
14 | CC(C)(C)NC(=O)NC1=C(Cl)C(=O)c2ccccc2C1=O [Compound 14, 1-(tert-Butyl)-3-(3-chloro-1,4-naphthoquinone-2-yl)urea] | > 10 µM | 1.4 ± 0.4 µM | 2.1 ± 0.6 µM | 195 to 196 °C | 0.6 | 1.3 ± 0.3 µM | –
15 | COC(=O)NC1=CC(=O)c2ccccc2C1=O [Compound 16, Methyl-(1,4-naphthoquinone-2-yl)carbamate] | > 10 µM | 4.1 ± 0.8 µM | 1.7 ± 0.2 µM | 201 to 202 °C | 2.2 | 3.8 ± 0.3 µM | –
16 | CCOC(=O)NC1=CC(=O)c2ccccc2C1=O [Compound 17, Ethyl-(1,4-naphthoquinone-2-yl)carbamate] | > 10 µM | 4.5 ± 0.7 µM | 1.7 ± 0.1 µM | 162 to 163 °C | 2.5 | 4.2 ± 0.2 µM | –
17 | CCCCCCCCCCCCCCCCOP(=O)([O-])OCC[N+](C)(C)C [HePc, hexadecylphosphocholine, reference compound] | – | – | – | – | – | – | percentage of subG0/G1 population ([5]; 15 μM, control for induction of apoptosis): 36.8 ± 1.1%
18 | O=C1Nc2ccc(S(=O)(=O)O)cc2C1=C1Nc2ccccc2C1=NO [Indirubin-3′-monoxime-5-sulphonic acid, reference compound] | 2.4 µM | – | – | – | – | – | –
19 | O=C1C=C(O)C(=O)c2c(O)c(Cl)c(Cl)c(O)c21 [MBC-10] | ~10 µM | 10.5 ± 1.2 µM | 11.2 ± 2.5 µM | – | – | – | inhibition at 10 µM (LdGSK-3s [1]; at 10 μM): 45.7%; IC50 [9]: 10.5 ± 1.2 µM
20 | COC(=O)NC1=C(Cl)C(=O)c2ccccc2C1=O [MBC-132] | 2.5 ± 0.1 µM | 1.51 ± 0.02 µM | 0.51 ± 0.01 µM | – | 5.1 | 2.6 µM | decrease in Rh123 accumulation ([4]; 3 μM (IC80)): ~70%; inhibition at 10 µM (hGSK-3β): 19%; IC50 [9]: 1.51 ± 0.02 µM; percentage of subG0/G1 population ([5]; 3 μM (IC80)): 63.2 ± 0.3%; decrease in parasite load ([8]; 1 μM): 39.1%
21 | N-(1,4-Naphthoquinone-2-yl) phenylacetamide [Compound 20] | > 10 µM | – | – | – | – | – | IC50 [2]: 7.1 ± 2.1 µM; IC50 [3]: 3.2 ± 0.1 µM; IC50 [6]: 7.5 ± 0.6 µM
22 | N-(1,4-Naphthoquinone-2-yl)acetamide [Compound 18] | > 10 µM | – | – | – | – | – | IC50 [2]: 4.5 ± 0.5 µM; IC50 [3]: 1.2 ± 0.1 µM; IC50 [6]: 4 ± 0.2 µM
23 | N-(1,4-Naphthoquinone-2-yl)propionamide [Compound 19] | > 10 µM | – | – | – | – | – | IC50 [2]: 5.9 ± 1.8 µM; IC50 [3]: 1.8 ± 0.3 µM; IC50 [6]: 4.3 ± 0.3 µM
